Source: publication PMC7893915, “Assessing cross-resistance within the pyrethroids in terms of their interactions with key cytochrome P450 enzymes and resistance in vector populations” (Parasites & Vectors, 2021)
Where two headings read alike, the source gives them in different places.

Experiments:
CYP6P2 = conditions: read-out: IC50 CYP6P2, inhibition of diethoxyfluorescein metabolism, cited from earlier work
[1] = test system: P450 panel (CYP6M2, CYP6P3, CYP6P9a, CYP6P2, CYP9J5, CYP6Z3, CYP6Z2); assay: P450 inhibition, whole P450 panel (mean across P450s); format: biochemical, Anopheles gambiae and An. funestus; conditions: for IC50: Anopheles gambiae and Anopheles funestus, mean of the seven P450s of Table S2, read-out: IC50 Mean across P450s
Source text: Cytochrome P450 inhibition assays using fluorogenic probe substrates have become commonplace in drug discovery screening cascades and are a rapid method of screening for insecticide interactions with mosquito P450s to predict insecticide binding, metabolism, cross-resistance and synergism. In this study, the half maximal inhibitory concentration (IC50), which provides a value for inhibition of each P450 by each pyrethroid (also referred to as ‘binding affinity’), and the percentage depletion, which gives a value for metabolism of each pyrethroid by each P450 (also referred to as vulnerability to metabolic attack), were both included as parameters to establish a P450s structural activity relationship model. This model was used to understand both the chemistry of the pyrethroids and the interaction with mosquito P450s that function as monooxygenases in metabolic resistance, to predict cross-resistance liabilities in vivo. […] A low percentage depletion indicates low metabolism of the pyrethroid, which means that it may be less vulnerable to resistance mediated by P450s.
In addition, inhibition activity data for these pyrethroids exposed to CYP6Z3 from the An. gambiae Kisumu strain were also generated (Additional file 1).

Anopheles sinensis = test system: Anopheles sinensis; set-up: method as in PMID 24159535; conditions: resistance ratios using LC50 values from a susceptible strain; most susceptible to bifenthrin, cyfluthrin and etofenprox, in that order; ref [55]; cited from earlier work
Anopheles arabiensis = conditions: Sudan, WHO Bioassay 1998, cited from earlier work
[2] = footnote b, ref Yunta et al. 2019[10]
[3] = recombinant P450s, probe diethoxyfluorescein
[4] = ID 200047, F1, larval collection, 9/2007-11/2007, Elmaygoma, ref Seidahmed OME et al. Eastern Mediterranean Health Journal. 2012;18(7):769-76
[5] = footnote a, ref Yunta et al. 2016[8]

| SMILES | IC50 (CYP6P2; [2]) | IC50 [1, 3] | binding to the P450s panel, rank in words ([1]; among the six pyrethroids) | susceptibility of larvae, rank in words (Anopheles sinensis) | mortality (Anopheles arabiensis; [4]) | IC50 (CYP6P2; [5]) | mortality (Anopheles arabiensis; F0, larval collection, 10/2009-11/2009, El Managil, ref Abdalla H et al. Parasites Vectors. 2014;7:213) | mortality (Anopheles arabiensis; F0, larval collection, 10/2009-11/2009, Rufaa, ref Abdalla H et al. Parasites Vectors. 2014;7:213) | mortality (Anopheles arabiensis; F0, larval collection, 10/2009-11/2009, Wad El Hadad, ref Abdalla H et al. Parasites Vectors. 2014;7:213) | mortality (Anopheles arabiensis; F0, larval collection, 10/2010-11/2010, Wad El Hadad, ref Abdalla H et al. Parasites Vectors. 2014;7:213) | mortality (Anopheles arabiensis; F0, larval collection, 10/2010-11/2010, Wad Medani, ref Abdalla H et al. Parasites Vectors. 2014;7:213) | IC50 [1] |
| --- | --- | --- | --- | --- | --- | --- | --- | --- | --- | --- | --- | --- |
| Cc1c(COC(=O)[C@@H]2[C@H](/C=C(\Cl)C(F)(F)F)C2(C)C)cccc1-c1ccccc1 (racemic) [Bifenthrin, bifenthrin] | 10.7 µM | 9.8 µM | lowest binding | most susceptible |  |  |  |  |  |  |  |  |
| CC1(C)[C@H](C(=O)O[C@H](C#N)c2cccc(Oc3ccccc3)c2)[C@@H]1/C=C(\Cl)C(F)(F)F (racemic) [λ-Cyhalothrin, λ-cyhalothrin] | 4.8 µM | 7.2 µM |  |  | 98.9 |  |  |  |  |  |  |  |
| CC1(C)[C@H](C(=O)O[C@H](C#N)c2cccc(Oc3ccccc3)c2)[C@@H]1C=C(Br)Br [Deltamethrin, deltamethrin] |  |  |  |  | 99.5 | 5 µM | 92 | 94 | 94 | 71 | 80 | 5.5 µM |
| CCOc1ccc(C(C)(C)COCc2cccc(Oc3ccccc3)c2)cc1 [Etofenprox, etofenprox] | 4.7 µM | 7 µM |  | most susceptible |  |  |  |  |  |  |  |  |
| CC1(C)C(C=C(Cl)Cl)C1C(=O)OCc1cccc(Oc2ccccc2)c1 (stereo not shown) [Permethrin, permethrin] |  | 7.6 µM |  | least susceptible | 96 | 8.6 µM |  |  |  |  |  |  |
